Measurements reported in publication PMC3292429 (Channels, 2009).
“Also recorded” adds a separate entry of the source.

Assays:
IK1 channel = settings: cited from earlier work; for mechanism of IK1 current increase: result in words
[1] = tested on: BK channel (large conductance Ca^2+-activated K channel, KCa1.1) in parotid acinar cells; test: Whole-cell patch clamp: IK1-induced inhibition of BK current; assay type: cell-based, mouse
[2] = tested on: IK1 (intermediate conductance Ca^2+-activated K channel, KCa3.1); test: Whole-cell patch clamp: IK1 current; assay type: cell-based, mouse; settings: 10 μM DCEBIO, +50 mV, 80 nM free Ca^2+; result in words
BK channel [3] = molecular target: BK channel (Mus musculus, UniProt Q08460); settings: result in words; cited from earlier work
BK channel [4] = settings: result in words, cited from earlier work
[5] = tested on: IK1 (intermediate conductance Ca^2+-activated K channel, KCa3.1); settings: result in words; cited from earlier work
[6] = stated without own data or reference

Sequence of BK channel (Mus musculus, UniProt Q08460) (Q08460 whole entry): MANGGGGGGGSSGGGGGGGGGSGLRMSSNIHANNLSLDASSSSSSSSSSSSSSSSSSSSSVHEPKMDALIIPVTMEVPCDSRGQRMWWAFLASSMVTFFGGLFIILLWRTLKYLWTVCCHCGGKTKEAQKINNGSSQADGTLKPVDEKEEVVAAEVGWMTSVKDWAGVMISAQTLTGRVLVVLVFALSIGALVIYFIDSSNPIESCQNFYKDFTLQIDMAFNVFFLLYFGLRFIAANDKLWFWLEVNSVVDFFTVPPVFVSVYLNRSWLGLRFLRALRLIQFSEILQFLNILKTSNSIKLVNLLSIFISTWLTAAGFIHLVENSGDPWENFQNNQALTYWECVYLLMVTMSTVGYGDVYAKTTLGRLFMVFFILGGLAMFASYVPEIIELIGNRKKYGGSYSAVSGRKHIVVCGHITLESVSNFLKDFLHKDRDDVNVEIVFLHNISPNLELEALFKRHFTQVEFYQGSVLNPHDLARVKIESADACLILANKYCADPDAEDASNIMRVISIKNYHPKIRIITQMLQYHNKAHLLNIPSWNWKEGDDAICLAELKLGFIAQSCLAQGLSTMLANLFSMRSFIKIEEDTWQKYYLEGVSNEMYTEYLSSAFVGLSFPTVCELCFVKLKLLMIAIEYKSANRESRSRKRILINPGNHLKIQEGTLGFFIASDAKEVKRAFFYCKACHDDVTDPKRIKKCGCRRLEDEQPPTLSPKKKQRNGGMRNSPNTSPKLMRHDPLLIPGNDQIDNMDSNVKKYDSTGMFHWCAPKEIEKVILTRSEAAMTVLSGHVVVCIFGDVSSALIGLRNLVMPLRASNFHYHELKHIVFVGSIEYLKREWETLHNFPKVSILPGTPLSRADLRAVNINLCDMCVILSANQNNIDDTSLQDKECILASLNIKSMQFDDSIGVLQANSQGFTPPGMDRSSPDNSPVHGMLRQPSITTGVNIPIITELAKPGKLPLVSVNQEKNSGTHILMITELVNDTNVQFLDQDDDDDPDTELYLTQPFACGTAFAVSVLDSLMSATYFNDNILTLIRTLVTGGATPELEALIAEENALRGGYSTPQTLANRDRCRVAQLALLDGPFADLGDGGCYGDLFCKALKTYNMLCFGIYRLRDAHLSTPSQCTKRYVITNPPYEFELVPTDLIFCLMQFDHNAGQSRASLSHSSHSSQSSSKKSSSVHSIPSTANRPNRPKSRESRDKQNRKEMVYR

For `CCn1c(=O)[nH]c2ccccc21` [1-EBIO, 1-ethyl-2-benzimidazolinone], the “share of closed events accounted for by the two closed times together” value (IK1 channel; channels activated by 1-EBIO) is listed as 97%, the “share of events with closed time 5 msec” value (IK1 channel; channels activated by 1-EBIO) is listed as 31% and the “share of events with closed time about 1.6 msec” value (IK1 channel; channels activated by 1-EBIO) is listed as 66%. For the same molecule, the “mechanism of IK1 current increase” value (IK1 channel) was “increase IK1 current by increasing the channel open probability”.
With `CCn1c(=O)[nH]c2cc(Cl)c(Cl)cc21` [DCEBIO, 5,6-Dichloro-1-ethyl-1,3-dihydro-2H-benzimidazol-2-one] the “reduction of BK current” value ([1]; 2 μM DCEBIO, pooled from 5 cells, voltage-independent (Fig. 5A)) was 50%, the “recovery of BK current after washout of DCEBIO” value ([1]; 10 μM DCEBIO, +50 mV, 80 nM free Ca^2+ in pipette, single example (Fig. 1)) was 96 % of control and the “mean recovery of BK current after washout of DCEBIO” value ([1]; 10 μM DCEBIO, +50 mV, mean ± SEM, 9 experiments) was 94 ± 3%. For the same molecule, the “effect on time-dependent BK current” value ([1]; 10 μM DCEBIO, +50 mV, reversible, result in words) was “time-dependent BK current was reduced when IK1 channels were activated”, the “inhibition of BK channel current by IK1 activation” value ([1]; 10 μM DCEBIO, +50 mV, single example (Fig. 2)) was 60% and the “reduction in BK current by IK1 activation, remaining cells” value ([1]; 10 μM DCEBIO, four of 19 cells, omitted from analysis, result in words) was “only modest reductions”. The “voltage dependence of IK1-induced BK inhibition” value ([1]; 10 μM DCEBIO, range of test voltages, result in words) was “very little voltage dependence; also recorded: relatively little and no consistent voltage dependence”, the “mean block of BK current by IK1 activation” value ([1]; DCEBIO (10 μM), +50 mV, mean ± SEM, N = 5) was 66 ± 6% and the “activation of IK1 current” value [2] was “activated the time and voltage independent IK1 currents; also recorded: triggered the expected time- and voltage-independent current through these channels”. For the same molecule, the “mechanism of IK1 current increase” value (IK1 channel) was “increase IK1 current by increasing the channel open probability” and the “effect on BK channels in cells from IK1 gene-ablated mice” value (BK channel [3]) was “no effects on BK channels”.
For `CC[N+](CC)(CC)CC` [TEA], the “effect of internal TEA on BK single channel current level” value (BK channel [4]; [6]) is listed as “reduction in the BK single channel current level (as does TEA)” and the “time dependence of open channel block by internal TEA” value (BK channel [4]; [6]) is listed as “no apparent time dependence”.
In the case of `Clc1ccccc1C(c1ccccc1)(c1ccccc1)n1cccn1` [TRAM-34], the “mean BK level after IK1 block by TRAM-34” value ([1]; 1 or 10 μM TRAM-34 in presence of DCEBIO, mean ± SEM, N = 5) is listed as 88 ± 3 % of control and the IK1 channel inhibition [5] is listed as “IK1 inhibitor”.
In the case of `C[N+](C)(C)CCCCCCCCCC[N+](C)(C)C` [decamethonium], the “competition of native β subunit inactivation with cytosolic blockers” value (BK channel [4]) is given as “does not”.
For `CC(C)(O)[C@H]1O[C@H]2CC[C@@]3(C)[C@@](O)(CC[C@H]4Cc5c([nH]c6ccccc56)[C@@]43C)C2=CC1=O` [paxilline], the “BK channel block by paxilline” value (BK channel [4]) is given as “specific BK channel blocker”.
